The text below walks through data of article PMC11269473, “Monoamine oxidase inhibition properties of 2,1-benzisoxazole derivatives” (Molecular Diversity, 2023).

Data set [1] addresses T1, recombinant human MAO-A (Homo sapiens, UniProt P21397).
T1 construct: purchased Sigma-Aldrich; host or cells: insect cells (microsomes)
T1 sequence (P21397 1-527): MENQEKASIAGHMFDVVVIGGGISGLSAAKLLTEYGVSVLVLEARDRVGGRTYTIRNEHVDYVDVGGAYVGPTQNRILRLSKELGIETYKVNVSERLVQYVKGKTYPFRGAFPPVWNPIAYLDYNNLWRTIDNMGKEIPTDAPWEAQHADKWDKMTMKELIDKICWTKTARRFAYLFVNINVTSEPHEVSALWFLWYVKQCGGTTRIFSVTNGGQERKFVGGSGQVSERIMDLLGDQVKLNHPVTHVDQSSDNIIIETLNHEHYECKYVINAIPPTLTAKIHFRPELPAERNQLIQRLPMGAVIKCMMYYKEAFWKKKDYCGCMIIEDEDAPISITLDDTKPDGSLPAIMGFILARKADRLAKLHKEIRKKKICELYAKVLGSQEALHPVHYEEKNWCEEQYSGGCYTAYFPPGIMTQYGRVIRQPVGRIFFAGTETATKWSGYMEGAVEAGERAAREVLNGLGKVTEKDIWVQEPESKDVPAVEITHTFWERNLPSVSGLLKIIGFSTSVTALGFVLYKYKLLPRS
Kind of data set: MAO-A inhibition, IC50 determination with kynuramine as substrate (fluorescence of 4-hydroxyquinoline). The data set is classed as biochemical. As to conditions: 50 µM kynuramine, mean ± SD of triplicate, NI = no inhibition observed at 100 µM. How it is done:
(§1) The MAO inhibition properties of the 2,1-benzisoxazole derivatives were investigated using the commercially available recombinant human MAO-A and MAO-B enzymes with kynuramine serving as substrate. MAO oxidizes kynuramine to yield 4-hydroxyquinoline, which was measured by fluorescence spectrophotometry.
(§2) For the MAO inhibition studies, a Varian Cary Eclipse fluorescence spectrophotometer was employed. Microsomes from insect cells containing recombinant human MAO-A and MAO-B (5 mg protein/mL) and kynuramine dihydrobromide were obtained from Sigma-Aldrich.
(§3) IC50 values for the inhibition of MAO were measured as described previously. Microsomes from insect cells containing recombinant human MAO-A and MAO-B (5 mg protein/mL) served as enzyme sources (Sigma-Aldrich) while kynuramine was used as non-specific MAO substrate. The enzyme reactions (200 µL reactions prepared in 96-well microtiter plates) contained phosphate buffer (100 mM, pH 7.4), 50 µM kynuramine and the test inhibitors at concentrations of 0.003–100 µM. […] The reactions were initiated with addition of MAO-A (0.0075 mg protein/mL) or MAO-B (0.015 mg protein/mL) and after 20 min of incubation at 37 °C, the reactions were terminated by the addition of 80 µL NaOH (2 N). The concentration of 4-hydroxyquinoline, the product of kynuramine oxidation by MAO, was measured by fluorescence spectrophotometry (λex = 310 nm; λem = 400 nm). IC50 values were estimated from sigmoidal plots of enzyme catalytic rate versus the inhibitor concentration (log[I]) which were constructed with the Prism software package (GraphPad). IC50 values were estimated in triplicate determinations from these plots and are expressed as mean ± standard deviation (SD).

The target in data set [2] is T1, recombinant human MAO-A. Kind of data set: Lineweaver–Burk plots / mode of MAO-A inhibition and Ki. In kind it is biochemical. How it is done: (§4) These two compounds represent potent MAO inhibitors among the study compounds. […] Each line of the Lineweaver–Burk plots was constructed with the kynuramine concentration ranging from 15 to 250 μM.
(§5) The insets are replots of the slopes of the Lineweaver–Burk plots versus inhibitor concentration. The Ki value equals the negative of the x-axis intercept when y = 0
(§6) IC50 values for the inhibition of MAO were measured as described previously. Microsomes from insect cells containing recombinant human MAO-A and MAO-B (5 mg protein/mL) served as enzyme sources (Sigma-Aldrich) while kynuramine was used as non-specific MAO substrate. The enzyme reactions (200 µL reactions prepared in 96-well microtiter plates) contained phosphate buffer (100 mM, pH 7.4), 50 µM kynuramine and the test inhibitors at concentrations of 0.003–100 µM. Stock solutions of the test inhibitors were dissolved in DMSO and added to the enzyme reactions to give a final DMSO concentration of 4% (v/v). The reactions were initiated with addition of MAO-A (0.0075 mg protein/mL) or MAO-B (0.015 mg protein/mL) and after 20 min of incubation at 37 °C, the reactions were terminated by the addition of 80 µL NaOH (2 N). The concentration of 4-hydroxyquinoline, the product of kynuramine oxidation by MAO, was measured by fluorescence spectrophotometry (λex = 310 nm; λem = 400 nm). IC50 values were estimated from sigmoidal plots of enzyme catalytic rate versus the inhibitor concentration (log[I]) which were constructed with the Prism software package (GraphPad). IC50 values were estimated in triplicate determinations from these plots and are expressed as mean ± standard deviation (SD).
(§7) For each line, the concentration of kynuramine ranged from 15–250 µM.

Data set [3] deals with T2, recombinant human MAO-B (Homo sapiens, UniProt P27338).
T2 construct: purchased Sigma-Aldrich; host or cells: insect cells (microsomes)
T2 sequence (P27338 1-520): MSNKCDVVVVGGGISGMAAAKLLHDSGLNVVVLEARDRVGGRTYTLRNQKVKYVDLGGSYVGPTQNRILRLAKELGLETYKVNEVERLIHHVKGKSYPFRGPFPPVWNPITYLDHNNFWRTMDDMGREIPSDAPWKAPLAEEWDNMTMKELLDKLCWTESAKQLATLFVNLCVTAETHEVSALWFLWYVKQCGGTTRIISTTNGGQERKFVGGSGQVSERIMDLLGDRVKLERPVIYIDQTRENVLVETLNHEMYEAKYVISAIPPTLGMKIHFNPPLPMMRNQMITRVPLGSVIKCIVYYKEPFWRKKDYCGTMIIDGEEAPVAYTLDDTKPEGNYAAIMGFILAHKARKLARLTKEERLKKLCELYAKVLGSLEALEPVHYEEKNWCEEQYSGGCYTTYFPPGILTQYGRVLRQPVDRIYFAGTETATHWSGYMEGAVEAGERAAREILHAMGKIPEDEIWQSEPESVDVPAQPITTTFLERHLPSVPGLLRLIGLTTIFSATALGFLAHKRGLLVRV
Kind of data set: MAO-B inhibition, IC50 determination with kynuramine as substrate (fluorescence of 4-hydroxyquinoline). The data set is classed as biochemical. As to conditions: for SI (selectivity index): SI = IC50(MAO-A)/IC50(MAO-B); for IC50: recombinant human MAO-B, 50 µM kynuramine, mean ± SD of triplicate, NI = no inhibition observed at 100 µM. How it is done:
as §1, §2
as §3, with “The” for “The reactions were initiated with addition of MAO-A (0.0075 mg protein/mL) or MAO-B (0.015 mg protein/mL) and after 20 min of incubation at 37 °C, the reactions were terminated by the addition of 80 µL NaOH (2 N). The”

Data set [4] deals with human MAO-B. Further details: method as in PMID 21175212. The following applies: competitive inhibitor; cited from earlier work.
The target in data set [5] is T2, recombinant human MAO-B. Kind of data set: Lineweaver–Burk plots / mode of MAO-B inhibition and Ki. The data set is classed as biochemical. How it is done: as §4, §5, §6, §7
Setting [6] is: Lineweaver–Burk lines intersect on the y-axis.

The structures appear in SMILES notation. Read-outs that look alike come from different tables or passages of the source.

Consider `c1ccc(-c2onc3ccc(C4OCCO4)cc23)cc1` [Compound 3l, 5-(1,3-Dioxolan-2-yl)-3-phenylbenzo[c]isoxazole], for which the melting point (in general, the temperature, or range, at which the solid turns liquid) was in the range of 137 to 138 °C. In data set [1], the IC50 (usually the concentration needed to halve the response being measured) came to 5.35 ± 0.211 µM. The “mode of MAO-A inhibition” value in data set [2] (setting [6]) is reported as “competitive”. For the same compound, in data set [2] (global (shared) fitting of the inhibition data, read-out: Ki, MAO-A, global (shared) fitting to the Michaelis–Menten equation), the Ki – broadly, a dissociation constant, usually derived from enzyme kinetics or from competition with a known ligand – is 500 ± 24 nM. For the same compound, the inhibition constant Ki in data set [2] (replot of slopes versus inhibitor concentration, Ki = −x when y = 0, kynuramine 15–250 µM, read-out: Ki, MAO-A, from replot of slopes of Lineweaver–Burk plots) was 460 nM. Also, in data set [3], the “SI (selectivity index)” value came to 0.20 and the IC50 was 27.3 ± 2.16 µM.

On to `NS(=O)(=O)Cc1noc2ccccc12` [Zonisamide, zonisamide], for which the Ki in data set [4] was 3100 nM.

The compound `N#Cc1ccc(-c2onc3c(Cl)cc(Cl)cc23)cc1` [Compound 7a, 4-(5,7-Dichlorobenzo[c]isoxazol-3-yl)benzonitrile] displayed a melting point of 240 to 241 °C. Besides, the IC50 in data set [1] came out at 19 ± 1.2 µM. In addition, in data set [3], the “SI (selectivity index)” value was 1138 and the IC50 turned out to be 0.017 ± 0.0045 µM. For the same compound, in data set [5] (setting [6]), the “mode of MAO-B inhibition” value is listed as “competitive”. The Ki in data set [5] (global (shared) fitting of the inhibition data, read-out: Ki, MAO-B, global (shared) fitting to the Michaelis–Menten equation) is 10 ± 1.5 nM. In data set [5] (replot of slopes versus inhibitor concentration, Ki = −x when y = 0, kynuramine 15–250 µM, read-out: Ki, MAO-B, from replot of slopes of Lineweaver–Burk plots), the Ki is 6.2 nM.
